Patent US12209091B2, “Isoindolinone derivatives as selective allosteric inhibitors of Egfr mutant cancers” (Hoffmann-La Roche Inc., priority 2018, dated 2025)

Target: T1, Phospho EGFR TMLR (H1975 cells) (Homo sapiens, UniProt P00533, L858R/T790M)
T1 construct: H1975 cell line (CRL-5908; Lot BA70803) was obtained from American Type Culture Collection; host or cells: H1975
Assay: HTRF Phospho EGFR TMLR assay (cellular), H1975
Type: cell-based
Conditions: H1975 cell line, 16 hours compound incubation, Phospho-EGFR HTRF readout
Description: HTRF Phospho EGFR TMLR Assay (Cellular)
H1975 cell line (CRL-5908; Lot BA70803) was obtained from American Type Culture Collection (Manassas, VA, USA). Cells were maintained at 37° C., 5% CO2 in complete Media RPMI 1640 without phenol red containing 0.3 mg/ml glutamine, 100 IU/ml penicillin, and […] streptomycin (Gibco, 15140-122) supplemented with 10% fetal bovine serum (FBS, Gibco, 10091-148). Compounds were diluted into starving medium RPMI 1640 Media (Gibco, 11835-030) without phenol red containing 0.3 mg/ml glutamine, 100 IU/ml penicillin, and […] streptomycin (Gibco).
Cells were cultured for 24 h in a 384-well plate (Greiner Bio-One, Nr. 784-080; 5000 cells/well) using 8 μl of complete medium/well. Then 4 μl/well of the 3× compound solution, containing a factor 3 dilution series of the compound or DMSO in starving medium, were added to the cells (final DMSO 0.33%). After 16 hours at 37° C., 5% CO2, 95% rel. humidity cells were lysed by adding to the compound mix 4 μl/well of the supplemented lysis buffer (Cis-bio, Phospho-EGFR HTRF kit, 64EG1PEH), followed by incubation for 30 min at room temperature with shaking (400 rpm). Then 4 μl of a mixture of anti-Phospho-EGFR Cryptate and of anti-Phospho-EGFR-d2 antibody solutions prepared in the detection buffer was added. The plates were then incubated for 4 h at room temperature before reading the fluorescence emission at 620 and 665 nm using an Envision reader (Perkin Elmer).

T1 sequence (P00533 25-1210 T790M/L858R): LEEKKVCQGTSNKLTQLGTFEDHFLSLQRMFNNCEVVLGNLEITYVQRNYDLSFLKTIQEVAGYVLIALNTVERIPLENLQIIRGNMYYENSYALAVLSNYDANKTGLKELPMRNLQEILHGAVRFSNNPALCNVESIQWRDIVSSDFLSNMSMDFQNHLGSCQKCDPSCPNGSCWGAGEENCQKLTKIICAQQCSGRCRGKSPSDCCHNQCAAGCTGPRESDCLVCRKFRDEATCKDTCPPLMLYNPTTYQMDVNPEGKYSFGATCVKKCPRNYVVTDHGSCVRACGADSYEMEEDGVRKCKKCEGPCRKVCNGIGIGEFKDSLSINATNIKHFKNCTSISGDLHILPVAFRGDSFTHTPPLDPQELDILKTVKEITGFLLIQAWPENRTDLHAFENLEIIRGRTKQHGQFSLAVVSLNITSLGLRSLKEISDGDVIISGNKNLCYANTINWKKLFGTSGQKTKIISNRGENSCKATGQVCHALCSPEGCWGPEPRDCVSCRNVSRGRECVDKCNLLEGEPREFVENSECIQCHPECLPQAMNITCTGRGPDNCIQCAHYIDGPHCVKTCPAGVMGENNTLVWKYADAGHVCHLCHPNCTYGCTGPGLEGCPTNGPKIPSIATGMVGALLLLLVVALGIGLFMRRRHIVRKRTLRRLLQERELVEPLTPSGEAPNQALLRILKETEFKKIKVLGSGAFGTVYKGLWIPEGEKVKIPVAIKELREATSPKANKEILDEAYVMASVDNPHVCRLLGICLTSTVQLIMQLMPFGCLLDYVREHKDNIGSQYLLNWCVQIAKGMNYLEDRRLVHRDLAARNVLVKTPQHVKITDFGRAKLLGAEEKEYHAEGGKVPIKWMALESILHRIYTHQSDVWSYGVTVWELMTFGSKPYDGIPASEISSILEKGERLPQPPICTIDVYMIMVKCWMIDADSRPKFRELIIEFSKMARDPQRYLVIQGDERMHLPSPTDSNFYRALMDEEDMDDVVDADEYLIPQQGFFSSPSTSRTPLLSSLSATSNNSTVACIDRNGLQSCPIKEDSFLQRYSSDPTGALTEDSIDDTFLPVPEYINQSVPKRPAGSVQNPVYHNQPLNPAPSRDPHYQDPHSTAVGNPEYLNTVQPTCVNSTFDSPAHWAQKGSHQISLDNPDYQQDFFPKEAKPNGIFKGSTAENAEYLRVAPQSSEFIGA

| SMILES | IC50 [nM] |
| --- | --- |
| CCN1CCN(c2ccc(-c3cc(F)c4c(c3)C(=O)N(C(C(=O)Nc3nccs3)c3ncn5c3CCC5)C4)cn2)CC1 (racemic) [Example 4, (2RS)-2-(6,7-Dihydro-5H-pyrrolo[1,2-c]imidazol-1-yl)-2-[6-[6-(4-ethylpiperazin-1-yl)-3-pyridyl]-4-fluoro-1-oxo-isoindolin-2-yl]-N-thiazol-2-yl-acetamide] | 4 |
| CCN1CCN(c2ccc(-c3cc(F)c4c(c3)C(=O)N(C(C(=O)Nc3nccs3)c3ncn5c3CCC5)C4)cc2)CC1 (racemic) [Example 5, (2RS)-2-(6,7-Dihydro-5H-pyrrolo[1,2-c]imidazol-1-yl)-2-[6-[4-(4-ethylpiperazin-1-yl)phenyl]-4-fluoro-1-oxo-isoindolin-2-yl]-N-thiazol-2-yl-acetamide] | 3 |
| CCN1CCN(c2ccc(-c3cc(Cl)c4c(c3)C(=O)N(C(C(=O)Nc3nccs3)c3ncn5c3CCC5)C4)cc2)CC1 (racemic) [Example 6, (2RS)-2-[4-Chloro-6-[4-(4-ethylpiperazin-1-yl)phenyl]-1-oxo-isoindolin-2-yl]-2-(6,7-dihydro-5H-pyrrolo[1,2-c]imidazol-1-yl)-N-thiazol-2-yl-acetamide] | 4 |
| O=C(Nc1nccs1)C(c1ncn2c1CCC2)N1Cc2c(Cl)cc(C#Cc3ccc(CN4CCC(O)CC4)cc3)cc2C1=O (racemic) [Example 9, (2RS)-2-[4-Chloro-6-[2-[4-[(4-hydroxy-1-piperidyl)methyl]phenyl]ethynyl]-1-oxo-isoindolin-2-yl]-2-(6,7-dihydro-5H-pyrrolo[1,2-c]imidazol-1-yl)-N-thiazol-2-yl-acetamide] | 4 |
| O=C(Nc1nccs1)C(c1ccn2c1CCC2)N1Cc2c(F)cc(C#Cc3ccc(CN4CCC(O)CC4)cc3)cc2C1=O (racemic) [Example 10, (2RS)-2-(6,7-Dihydro-5H-pyrrolizin-1-yl)-2-[4-fluoro-6-[2-[4-[(4-hydroxy-1-piperidyl)methyl]phenyl]ethynyl]-1-oxo-isoindolin-2-yl]-N-thiazol-2-yl-acetamide] | 8 |
| O=C(Nc1nccs1)C(c1ncn2c1CCC2)N1Cc2c(F)cc(C#Cc3ccc(CN4CCC(O)CC4)cc3)c(Cl)c2C1=O (racemic) [Example 13, (2RS)-2-[7-chloro-4-fluoro-6-[2-[4-[(4-hydroxy-1-piperidyl)methyl]phenyl]ethynyl]-1-oxo-isoindolin-2-yl]-2-(6,7-dihydro-5H-pyrrolo[1,2-c]imidazol-1-yl)-N-thiazol-2-yl-acetamide] | 3 |
| O=C(Nc1nccs1)C(c1ncn2c1CCC2)N1Cc2c(F)cc(C#Cc3ccc(CN4CCCCC4)cc3)cc2C1=O (racemic) [Example 14, (2RS)-2-(6,7-Dihydro-5H-pyrrolo[1,2-c]imidazol-1-yl)-2-[4-fluoro-1-oxo-6-[2-[4-(1-piperidylmethyl)phenyl]ethynyl]isoindolin-2-yl]-N-thiazol-2-yl-acetamide] | 4 |

The remaining lines, values ahead:

| IC50 [nM] | SMILES |
| --- | --- |
| 3 | CN1CCN(Cc2ccc(C#Cc3cc(F)c4c(c3)C(=O)N(C(C(=O)Nc3nccs3)c3ncn5c3CCC5)C4)cc2)CC1 (racemic) [Example 1, (2RS)-2-(6,7-Dihydro-5H-pyrrolo[1,2-c]imidazol-1-yl)-2-[4-fluoro-6-[2-[4-[(4-methylpiperazin-1-yl)methyl]phenyl]ethynyl]-1-oxo-isoindolin-2-yl]-N-thiazol-2-yl-acetamide] |
| 1 | O=C(Nc1nccs1)C(c1ncn2c1CCC2)N1Cc2c(F)cc(C#Cc3ccc(CN4CCC(O)CC4)cc3)cc2C1=O (racemic) [Example 2, (2RS)-2-(6,7-Dihydro-5H-pyrrolo[1,2-c]imidazol-1-yl)-2-[4-fluoro-6-[2-[4-[(4-hydroxy-1-piperidyl)methyl]phenyl]ethynyl]-1-oxo-isoindolin-2-yl]-N-thiazol-2-yl-acetamide] |
| 2 | O=C(Nc1nccs1)C(c1ncn2c1CCC2)N1Cc2c(F)cc(-c3ccc(N4CCNCC4)cc3)cc2C1=O (racemic) [Example 3, (2RS)-2-(6,7-Dihydro-5H-pyrrolo[1,2-c]imidazol-1-yl)-2-[4-fluoro-1-oxo-6-(4-piperazin-1-ylphenyl)isoindolin-2-yl]-N-thiazol-2-yl-acetamide] |
| 1 | O=C(Nc1nccs1)C(c1ncn2c1CCC2)N1Cc2c(F)cc(-c3ccc(N4CCC(O)CC4)cc3)cc2C1=O (racemic) [Example 7, (2RS)-2-(6,7-Dihydro-5H-pyrrolo[1,2-c]imidazol-1-yl)-2-[4-fluoro-6-[4-(4-hydroxy-1-piperidyl)phenyl]-1-oxo-isoindolin-2-yl]-N-thiazol-2-yl-acetamide] |
| 2 | O=C(Nc1nccs1)C(c1ncn2c1CCC2)N1Cc2c(Cl)cc(-c3ccc(N4CCC(O)CC4)nc3)cc2C1=O (racemic) [Example 8, (2RS)-2-[4-Chloro-6-[6-(4-hydroxy-1-piperidyl)-3-pyridyl]-1-oxo-isoindolin-2-yl]-2-(6,7-dihydro-5H-pyrrolo[1,2-c]imidazol-1-yl)-N-thiazol-2-yl-acetamide] |
| 2 | O=C(Nc1nccs1)C(c1ncn2c1CCC2)N1Cc2c(Cl)cc(-c3ccc(N4CCC(O)CC4)cc3)cc2C1=O (racemic) [Example 11, (2RS)-2-[4-Chloro-6-[4-(4-hydroxy-1-piperidyl)phenyl]-1-oxo-isoindolin-2-yl]-2-(6,7-dihydro-5H-pyrrolo[1,2-c]imidazol-1-yl)-N-thiazol-2-yl-acetamide] |
| 2 | O=C(Nc1nccs1)C(c1ncn2c1CCC2)N1Cc2c(F)cc(C#Cc3ccc(CO)cc3)cc2C1=O (racemic) [Example 12, (2RS)-2-(6,7-Dihydro-5H-pyrrolo[1,2-c]imidazol-1-yl)-2-[4-fluoro-6-[2-[4-(hydroxymethyl)phenyl]ethynyl]-1-oxo-isoindolin-2-yl]-N-thiazol-2-yl-acetamide] |
